Tests used:
[1] = tested on: other anther-culture progeny rows of Mercury//Lemont/Mercury rice; test: Open-field spray screen of anther-culture progeny rows, all other rows; format: in vivo
Description: This resistant line was derived by conducting anther culture on the F2 progeny of a backcross made by pollinating a rice plant of the variety "Lemont" with pollen from the rice variety "Mercury," followed by a backcross using pollen from this hybrid to pollinate a plant of the variety "Mercury." The resulting backcross is described as Mercury//Lemont/Mercury. Anthers collected from a plant resulting from this backcross were plated on callus induction medium, and the resulting calli were transferred to plant regeneration media. The procedures used were generally as described in Croughan and Chu, "Rice (Oryza saliva L.): Establishment of Callus Cultures and the Regeneration of Plants" in Bajaj (Ed.), "Biotechnology in Agriculture and Forestry," pp. 19-37 (1991). Several regenerated plants were produced and grown to maturity in a greenhouse to produce seed. Progeny seed were planted in an open field, and herbicide applications were made using a garden tractor-mounted spray rig.
A set of 4,193 progeny rows derived from this anther culture procedure were planted in an open field, and were sprayed with 4 ounces per acre of Pursuit (1.00 ounce active ingredient imazethapyr per acre) at the four-leaf stage of seedling development. […]

[2] = tested on: ATCC 75295 rice line; test: Field plot test with AHAS-inhibiting herbicides, ATCC 75295; format: in vivo
Description: The resistance of these plants to several other AHAS-inhibiting herbicides was also tested. Nine-foot-long field plots were planted with seven rows of rice per plot. The test included nine check rice varieties, and the ATCC 75295 rice line. A shielded spray boom was used to apply herbicide, spraying six of the seven rows in each plot. The four herbicides used were Pursuit (imazethapyr: (±)-2-[4,5-dihydro-4-methyl-4-(1-methylethyl)-5-oxo-1H-imidazol-2-yl]-5-ethyl-3-pyridinecarboxylic acid); Scepter (imazaquin: 2-[4,5-dihydro-4-methyl-4-(1-methylethyl)-5-oxo-1H-imidazol-2-yl]-3-quinolinecarboxylic acid); Accent (nicosulfuron: 2-(((((4,6-dimethoxypyrimidin-2-yl)aminocarbonyl)) aminosulfonyl))-N,N-dimethyl-3-pyridinecarboxamide); and Beacon (primisulfuron: 3-[4,6-bis(difluoromethoxy)-pyrimidin-2-yl]-1-(2-methoxycarbonylphenylsulfonyl)urea). The herbicides were applied to two replicate plots for each herbicide when the rice was at the three-leaf stage of maturity. Two replicate plots of each check variety and of the resistant line were left unsprayed as controls. The Accent treatment used 0.67 ounce of product (0.50 ounce active ingredient) per acre, with 0.25% nonionic surfactant. The Pursuit treatment used four ounces of product (1.00 ounce active ingredient) per acre, with 0.25% nonionic surfactant. The Scepter treatment used one pint of product (3.00 ounces active ingredient) per acre, with 0.25% nonionic surfactant. The Beacon treatment used 0.76 ounce of product (0.57 ounce active ingredient) per acre, with 0.25% nonionic surfactant. […] A similar test with the same rice varieties and the ATCC 75295 line was conducted at the five-leaf stage of development (i.e., plants fifteen days older than in the test described above), using Accent and Pursuit at the rates given above. […] The ATCC 75295 line was resistant only when herbicide was applied post-emergence.

[3] = target: T1, AHAS (acetohydroxyacid synthase) in enzyme extracts from rice line ATCC 75295 (Oryza sativa subsp. japonica, UniProt Q6K2E8); test: AHAS enzyme assay, extract from rice line ATCC 75295; format: biochemical
T1 construct: 40.0 grams (fresh weight) of tissue were extracted in the same manner for each of the three varieties; from tissue; host or cells: stem tissue of greenhouse-grown rice seedlings, line ATCC 75295 (leaf blades removed)
T1 sequence (Q6K2E8 40-644 limits assumed): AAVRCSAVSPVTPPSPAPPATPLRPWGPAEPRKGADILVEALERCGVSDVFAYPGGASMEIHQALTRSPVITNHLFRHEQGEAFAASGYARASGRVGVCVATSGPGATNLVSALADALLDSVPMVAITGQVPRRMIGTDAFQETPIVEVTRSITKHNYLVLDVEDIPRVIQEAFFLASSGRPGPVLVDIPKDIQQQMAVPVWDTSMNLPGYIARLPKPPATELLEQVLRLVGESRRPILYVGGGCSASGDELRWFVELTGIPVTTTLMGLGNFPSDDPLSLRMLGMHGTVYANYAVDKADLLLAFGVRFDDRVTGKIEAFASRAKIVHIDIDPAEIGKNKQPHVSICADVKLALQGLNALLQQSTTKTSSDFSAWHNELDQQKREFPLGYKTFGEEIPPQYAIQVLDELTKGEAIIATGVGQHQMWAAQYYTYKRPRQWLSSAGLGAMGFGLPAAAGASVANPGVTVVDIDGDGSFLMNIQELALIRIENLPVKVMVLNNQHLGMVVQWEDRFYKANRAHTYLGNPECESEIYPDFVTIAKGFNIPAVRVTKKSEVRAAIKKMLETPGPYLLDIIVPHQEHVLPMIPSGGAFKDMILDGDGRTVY
Description: The herbicide resistance of the AHAS enzyme from the ATCC 75295 rice line was compared to the resistance of the AHAS enzymes from the rice varieties "Lemont" and "Mercury," the varieties that were the ancestors of this rice line. The procedures used to assay the activity of acetohydroxyacid synthase were substantially as described in B. K. Singh et al., "Assay of Acetohydroxyacid Synthase," Analytical Biochemistry, vol. 171, pp. 173-179 (1988), except as noted. In the first paragraph of Singh's "Materials and Methods," instead of corn suspension culture cells, stem tissues from greenhouse-grown rice seedlings at the four-leaf stage of development were used. Leaf blades were removed, and 40.0 grams (fresh weight) of tissue were extracted in the same manner for each of the three varieties. […] Pursuit herbicide (imazethapyr) was included in the "standard reaction mixture" for the AHAS assay in the concentrations indicated in Table 1 below. Checks were made of direct acetoin formation during the enzyme assay. Each treatment was conducted with two replicates.

[4] = tested on: Non-Resistant Control rice plants (check varieties); test: Greenhouse test of plant vigor after imazethapyr, non-resistant controls; format: in vivo; conditions: for Rating of rice plant vigor: 36 days after treatment at 2-3 leaf stage, 10-point scale, 0 = dead plant, 10 = no visible injury
Description: In the greenhouse tests, pots were planted with F3 seed from crosses between the two lines. Each pot was planted with seed from a single panicle from a single plant; each pot was therefore the equivalent of a headrow. A total of 140 pots were planted in this manner, along with 40 pots of various non-resistant genotypes for comparison. Imazethapyr was applied at the 2-3 leaf stage two weeks after planting, at rates equivalent to 0.063 lb. active ingredient (a.i.) per acre, 0.125 lb. a.i./acre, and 0.313 lb. a.i./acre.
Table 2 summarizes measurements taken 36 days after spraying rice at the 2-3 leaf stage of development.

SMILES: CCc1cnc(C2=NC(C)(C(C)C)C(=O)N2)c(C(=O)O)c1 (racemic) [imazethapyr, (±)-2-[4,5-dihydro-4-methyl-4-(1-methylethyl)-5-oxo-1H-imidazol-2-yl]-5-ethyl-3-pyridinecarboxylic acid]
- Symptoms (in words) ([1]; 4 ounces per acre Pursuit (1.00 ounce a.i. per acre), four-leaf stage, open field): injured or killed
- Symptoms (in words) ([1]; second spray 8 ounces/acre Pursuit (2.00 ounce a.i. per acre), four weeks after the initial treatment, rows that survived the initial spraying): lethal
- Resistance of the rice line (in words) ([2]; five-leaf stage (plants fifteen days older), same rates as in the three-leaf test): good resistance
- Resistance of the rice line (in words) ([2]; three-leaf stage, per acre a.i.: Accent 0.50 ounce, Pursuit 1.00 ounce, Scepter 3.00 ounces, Beacon 0.57 ounce, 0.25% nonionic surfactant): good resistance
- activity at 0.1 µM ([3]; imazethapyr 0.1 μM): 102%
- activity at 1 µM ([3]; imazethapyr 1 μM): 89%
- activity at 10 µM ([3]; imazethapyr 10 μM): 61%
- activity at 100 µM ([3]; imazethapyr 100 μM): 48%
- Rating of rice plant vigor ([4]; 0.063 lb. a.i./acre): 0.33 ± 0.18
- Rating of rice plant vigor ([4]; 0.125 lb. a.i./acre): 0.12 ± 0.06
- Rating of rice plant vigor ([4]; 0.313 lb. a.i./acre): 0.15 ± 0.15
- Mortality ([4]; check varieties, all treatments (0.063, 0.125, 0.313 lb. a.i./acre)): 100%
- Effect on plants (in words) ([4]; non-resistant rice, 0.063 pounds active ingredient per acre): completely killed
- Effect on plants (in words) ([4]; nonresistant controls, each of the nonzero rates (0.063, 0.125, 0.313 lb. a.i./acre)): killed
